# Assay results reported in the supplement of paper PMC11208160.
# Assay: recombinant UMI read abundance after kanamycin selection (control-corrected) (log10(CPM+1)); higher = more efficient recombination; extreme values may be limits of the assay; sequences stand for … in AGTGCAGAGAAAATCGGCCAGTTTTCTCTGCCTGCAGTCCGCATGCCGTGGGACCCCTTGGGTTCTAACCTGTTGCCTAGATTTATGCAGCGGACTGCCTTTCTCCCAAAGTGATAAACCGG…AGGTTGGTTTCACT; site = the 11-nt donor
# How it was run: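 Under IPTG (0.07 mM) plus kanamycin, or without selection, Escherichia coli carrying a UMI-tagged donor and donor-binding-loop pair library and a target plasmid for the IS621 bridge recombinase were plated in two replicates. Recombinant UMIs were PCR-amplified across the donor–target junction and sequenced. Counts were converted to CPM, averaged over replicates, scaled by control-derived factors and reported as log10(CPM+1).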
# 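Further: IS621 bridge recombinase in Escherichia coli cells against a fixed T5 target plasmid.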
row,Sequence,recombinant UMI read abundance (log10)
1,CGTTTGGCATGGACCGGTTTTCCCGGTAATCCGTATTTGCG (site CGTTTGGCTCG),0.142
2,GTGCACGCATGGACCGGTTTTCCCGGTAATCCGTATTTGGT (site GTGCAAGCTAC),0.553
3,GCTACTGCATGGACCGGTTTTCCCGGTAATCCGTATTTGCC (site GCTATTGCTGG),0
4,TTGGAGCCATGGACCGGTTTTCCCGGTAATCCGTATTTGAC (site TTGGAGCCTGT),1.31
5,GAGCTCGCATGGACCGGTTTTCCCGGTAATCCGTATTTGAT (site GAGCTCACTAT),1.7
6,GTTGTTTCATGGACCGGTTTTCCCGGTAATCCGTATTTGGT (site GTTGTTTCTAC),0.83
7,TCGACCTCATGGACCGGTTTTCCCGGTAATCCGTATTTGGA (site TCGACCTCTTC),0.524
8,ATATCATCATGGACCGGTTTTCCCGGTAATCCGTATTTGCG (site ATATCATCTCG),2.11
9,CAATGCTCATGGACCGGTTTTCCCGGTAATCCGTATTTGTA (site CAATGCTCTTG),2.25
10,TCCACGCCATGGACCGGTTTTCCCGGTAATCCGTATTTGTA (site CCCACGCCTTA),0.038
11,CCGTTTACATGGACCGGTTTTCCCGGTAATCCGTATTTGCA (site CCGTTTACTTG),0
12,GATTTTCCATGGACCGGTTTTCCCGGTAATCCGTATTTGCT (site GATTTTCCTAG),0
13,TCCAATTCATGGACCGGTTTTCCCGGTAATCCGTATTTGCG (site TCCAATTCTAG),0
14,CGTTCGACATGGACCGGTTTTCCCGGTAATCCGTATTTGAG (site CGTTGGACTCT),0.0108
15,AATGCGTCATGGACCGGTTTTCCCGGTAATCCGTATTTGAC (site AATGGGTCTGT),0
16,CGAACGACATGGACCGGTTTTCCCGGTAATCCGTATTTGTT (site CGAACGACTAA),1.08

row,Sequence,recombinant UMI read abundance (log10)
1,CTACTACCATGGACCGGTTTTCCCGGTAATCCGTATTTGGA (site CTACTAGCTTC),0.00519
2,AGATCCGCATGGACCGGTTTTCCCGGTAATCCGTATTTGGT (site AGATCCGCTAC),0.811
3,CACGCGTCATGGACCGGTTTTCCCGGTAATCCGTATTTGAG (site CACGCGTCTCT),2.11
4,TAATGAGCATGGACCGGTTTTCCCGGTAATCCGTATTTGGG (site TATTGAGCTCC),0.0136
5,CGTTCGACATGGACCGGTTTTCCCGGTAATCCGTATTTGAG (site CGTTAGACTCT),0.0143
6,CGTAATCCATGGACCGGTTTTCCCGGTAATCCGTATTTGTT (site CGCAATCCTAA),0
7,TCTAGAACATGGACCGGTTTTCCCGGTAATCCGTATTTGAG (site ACTAGAACTCT),0.00743
8,CAACCGCCATGGACCGGTTTTCCCGGTAATCCGTATTTGTG (site CAAACGCCTCA),0.00379
9,CGATCATCATGGACCGGTTTTCCCGGTAATCCGTATTTGCT (site CGATCATCTGG),0
10,CGAAAGACATGGACCGGTTTTCCCGGTAATCCGTATTTGGT (site CGAAAGACTAC),2
11,GTAGTTGCATGGACCGGTTTTCCCGGTAATCCGTATTTGCG (site GTAGTTGCTCG),2.88
12,CCGTTTACATGGACCGGTTTTCCCGGTAATCCGTATTTGCG (site CCGTTTACTAG),0
13,CAGCTCACATGGACCGGTTTTCCCGGTAATCCGTATTTGAT (site TAGCTCACTAT),0.404
14,GCGAAATCATGGACCGGTTTTCCCGGTAATCCGTATTTGCT (site GCGAAATCTAG),1.62
15,ACCTAGACATGGACCGGTTTTCCCGGTAATCCGTATTTGGC (site ACCTAGACTGC),1.82
16,GCTCGAGCATGGACCGGTTTTCCCGGTAATCCGTATTTGCA (site GATCGAGCTTG),0.25
